Assay results reported in patent US11000033B2, “Ketone or oxime compound, and herbicide” (NISSAN CHEMICAL CORPORATION, priority 2014, dated 2021).

How the values were obtained:
Assay type in all cases: in vivo
[1] = test system: Echinochloa oryzacola Vasing.; experiment: Test Example 1: herbicidal activity, application before weed generation in submerged conditions (symbol A); conditions: application herbicide amount 320 g/ha
Outline: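 Scores run 0 to 5 by herbicidal ratio, with 5 meaning 90% or more and 0 meaning 5% or lower, read 3 weeks after treatment. Compound was applied as a diluted emulsion to the water surface of submerged alluvial-soil pots on the day weed seeds were sown.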

transplanted rice plant = experiment: Test Example 1: effect on crop, application before weed generation in submerged conditions (symbol a); conditions: application herbicide amount 320 g/ha
Outline: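 Alluvial soil pots flooded to 4 cm water, sown with Echinochloa oryzacola, Scirpus juncoides and Monochoria vaginalis, then transplanted with 2.5 leaf stage rice seedlings; pre-emergence application. Greenhouse 25° C. to 30° C.; scored 0–5 by herbicidal ratio 3 weeks after application.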

[2] = test system: Echinochloa crus-galli var. crus-galli; experiment: Test Example 3: herbicidal effect by foliage application, Wagner pot (symbol H); conditions: application herbicide amount 320 g/ha
Outline: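 In a shallow-flooded alluvial soil system held at 25–30 °C, plants including rice grew for 14 days and were then sprayed over the foliage with emulsion diluted to a fixed herbicide amount. Visual rating followed at 3 weeks.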

Setaria viridis [3] = experiment: Test Example 4: herbicidal effect by soil treatment (symbol G)
Outline: (§1)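 Seeds were sown in sterilized diluvial soil, covered with about 1.5 cm of soil, and the soil surface was sprayed with a water-diluted emulsion of the compound at a predetermined rate. Plants grew in a greenhouse at 25° C. to 30° C.; effects were scored visually 3 weeks after application.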

Lolium multiflorum Lam. = experiment: Test Example 4: herbicidal effect by soil treatment (symbol K)
Outline: as §1

Amaranthus retroflexus [4] = experiment: Test Example 4: herbicidal effect by soil treatment (symbol N)
Outline: as §1

Stellaria media [5] = experiment: Test Example 4: herbicidal effect by soil treatment (symbol P)
Outline: as §1

wheat [6] = experiment: Test Example 4: effect on crop by soil treatment (symbol e); conditions: for e: wheat, effect on crop grade: application herbicide amount 320 g/ha
Outline: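 Grown at 25° C. to 30° C. in a greenhouse, the crops came from seed sown spot-wise in sterilized diluvial soil under roughly 1.5 cm of covering soil.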

Setaria viridis [7] = experiment: Test Example 5: herbicidal effect by foliage application, plastic box (symbol G); conditions: 320 g/ha, 3 weeks after application
Outline: (§2)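 Visual herbicidal score, taken three weeks post-application, of seedlings sprayed on the foliage with water-diluted emulsion at a predetermined amount; plants were 14 days old, greenhouse-raised at 25° C. to 30° C.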

Avena fatua = experiment: Test Example 5: herbicidal effect by foliage application, plastic box (symbol I); conditions: 320 g/ha, 3 weeks after application
Outline: as §2

Abutilon theophrasti = experiment: Test Example 5: herbicidal effect by foliage application, plastic box (symbol M); conditions: 320 g/ha, 3 weeks after application
Outline: as §2

Amaranthus retroflexus [8] = experiment: Test Example 5: herbicidal effect by foliage application, plastic box (symbol N); conditions: 320 g/ha, 3 weeks after application
Outline: as §2

Stellaria media [9] = experiment: Test Example 5: herbicidal effect by foliage application, plastic box (symbol P); conditions: 320 g/ha, 3 weeks after application
Outline: as §2

wheat [10] = experiment: Test Example 5: effect on crop by foliage application, plastic box (symbol e); conditions: 320 g/ha, 3 weeks after application
Outline: (§3)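 Foliage-application test plants come from spot sowing in sterilized diluvial soil under a soil layer of about 1.5 cm, grown at 25° C. to 30° C. in a greenhouse.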

beet = experiment: Test Example 5: effect on crop by foliage application, plastic box (symbol f); conditions: 320 g/ha, 3 weeks after application
Outline: as §3

[11] = application herbicide amount 320 g/ha

Cc1cc(C)c(C2=C(O)CC(CC(=O)Cc3ccccc3)C2=O)c(C)c1 (stereo not drawn) [2-015]
Herbicidal effect grade, A: Echinochloa oryzacola Vasing. [1]: 0 (Herbicidal ratio of 5% or lower (almost no effect))
Effect grade on crop, a: transplanted rice plant (transplanted rice plant): 0 (Herbicidal ratio of 5% or lower (almost no effect))
herbicidal effect on H (Echinochloa crus-galli var. crus-galli), grade 0-5 [2]: 1 (Herbicidal ratio of 5% or higher and lower than 20%)
G: Setaria viridis, herbicidal effect grade (Setaria viridis [3]; [11]): 3 (Herbicidal ratio of 40% or higher and lower than 70%)
K: Lolium multiflorum Lam., herbicidal effect grade (Lolium multiflorum Lam.; [11]): 5 (Herbicidal ratio of 90% or more (almost completely withered))
N: Amaranthus retroflexus, herbicidal effect grade (Amaranthus retroflexus [4]; [11]): 0 (Herbicidal ratio of 5% or lower (almost no effect))
P: Stellaria media, herbicidal effect grade (Stellaria media [5]; [11]): 0 (Herbicidal ratio of 5% or lower (almost no effect))
e: wheat, effect on crop grade (wheat [6]): 0 (Herbicidal ratio of 5% or lower (almost no effect))
G: Setaria viridis, herbicidal effect grade (Setaria viridis [7]): 5 (Herbicidal ratio of 90% or more (almost completely withered))
I: Avena fatua, herbicidal effect grade (Avena fatua): 4 (Herbicidal ratio of 70% or higher and lower than 90%)
M: Abutilon theophrasti, herbicidal effect grade (Abutilon theophrasti): 1 (Herbicidal ratio of 5% or higher and lower than 20%)
N: Amaranthus retroflexus, herbicidal effect grade (Amaranthus retroflexus [8]): 0 (Herbicidal ratio of 5% or lower (almost no effect))
P: Stellaria media, herbicidal effect grade (Stellaria media [9]): 0 (Herbicidal ratio of 5% or lower (almost no effect))
e: wheat, effect on crop grade (wheat [10]): 0 (Herbicidal ratio of 5% or lower (almost no effect))
f: beet, effect on crop grade (beet): 0 (Herbicidal ratio of 5% or lower (almost no effect))

CON=C(C)CC1CC(O)=C(c2c(C)cc(C(C)=O)cc2C)C1=O (stereo not drawn) [6-026]
Herbicidal effect grade, A: Echinochloa oryzacola Vasing. [1]: 1 (Herbicidal ratio of 5% or higher and lower than 20%)
Effect grade on crop, a: transplanted rice plant (transplanted rice plant): 3 (Herbicidal ratio of 40% or higher and lower than 70%)
herbicidal effect on H (Echinochloa crus-galli var. crus-galli), grade 0-5 [2]: 5 (Herbicidal ratio of 90% or more (almost completely withered))
G: Setaria viridis, herbicidal effect grade (Setaria viridis [3]; [11]): 4 (Herbicidal ratio of 70% or higher and lower than 90%)
K: Lolium multiflorum Lam., herbicidal effect grade (Lolium multiflorum Lam.; [11]): 1 (Herbicidal ratio of 5% or higher and lower than 20%)
N: Amaranthus retroflexus, herbicidal effect grade (Amaranthus retroflexus [4]; [11]): 2 (Herbicidal ratio of 20% or higher and lower than 40%)
P: Stellaria media, herbicidal effect grade (Stellaria media [5]; [11]): 0 (Herbicidal ratio of 5% or lower (almost no effect))
e: wheat, effect on crop grade (wheat [6]): 0 (Herbicidal ratio of 5% or lower (almost no effect))
G: Setaria viridis, herbicidal effect grade (Setaria viridis [7]): 5 (Herbicidal ratio of 90% or more (almost completely withered))
I: Avena fatua, herbicidal effect grade (Avena fatua): 5 (Herbicidal ratio of 90% or more (almost completely withered))
M: Abutilon theophrasti, herbicidal effect grade (Abutilon theophrasti): 0 (Herbicidal ratio of 5% or lower (almost no effect))
N: Amaranthus retroflexus, herbicidal effect grade (Amaranthus retroflexus [8]): 0 (Herbicidal ratio of 5% or lower (almost no effect))
P: Stellaria media, herbicidal effect grade (Stellaria media [9]): 0 (Herbicidal ratio of 5% or lower (almost no effect))
e: wheat, effect on crop grade (wheat [10]): 3 (Herbicidal ratio of 40% or higher and lower than 70%)
f: beet, effect on crop grade (beet): 0 (Herbicidal ratio of 5% or lower (almost no effect))

CCc1cc(C#C[Si](C)(C)C)cc(C)c1C1=C(O)CC(CC(C)=NOC)C1=O (mixture of isomers) [6-008]
Herbicidal effect grade, A: Echinochloa oryzacola Vasing. [1]: 5 (Herbicidal ratio of 90% or more (almost completely withered))
Effect grade on crop, a: transplanted rice plant (transplanted rice plant): 5 (Herbicidal ratio of 90% or more (almost completely withered))
herbicidal effect on H (Echinochloa crus-galli var. crus-galli), grade 0-5 [2]: 5 (Herbicidal ratio of 90% or more (almost completely withered))
G: Setaria viridis, herbicidal effect grade (Setaria viridis [3]; [11]): 5 (Herbicidal ratio of 90% or more (almost completely withered))
K: Lolium multiflorum Lam., herbicidal effect grade (Lolium multiflorum Lam.; [11]): 5 (Herbicidal ratio of 90% or more (almost completely withered))
N: Amaranthus retroflexus, herbicidal effect grade (Amaranthus retroflexus [4]; [11]): 0 (Herbicidal ratio of 5% or lower (almost no effect))
P: Stellaria media, herbicidal effect grade (Stellaria media [5]; [11]): 0 (Herbicidal ratio of 5% or lower (almost no effect))
e: wheat, effect on crop grade (wheat [6]): 4 (Herbicidal ratio of 70% or higher and lower than 90%)
G: Setaria viridis, herbicidal effect grade (Setaria viridis [7]): 5 (Herbicidal ratio of 90% or more (almost completely withered))
I: Avena fatua, herbicidal effect grade (Avena fatua): 0 (Herbicidal ratio of 5% or lower (almost no effect))
M: Abutilon theophrasti, herbicidal effect grade (Abutilon theophrasti): 0 (Herbicidal ratio of 5% or lower (almost no effect))
N: Amaranthus retroflexus, herbicidal effect grade (Amaranthus retroflexus [8]): 0 (Herbicidal ratio of 5% or lower (almost no effect))
P: Stellaria media, herbicidal effect grade (Stellaria media [9]): 0 (Herbicidal ratio of 5% or lower (almost no effect))
e: wheat, effect on crop grade (wheat [10]): 4 (Herbicidal ratio of 70% or higher and lower than 90%)
f: beet, effect on crop grade (beet): 0 (Herbicidal ratio of 5% or lower (almost no effect))

C=CCOC(=O)OC1=C(c2c(C)cc(C)cc2C)C(=O)C(CC(C)=NOC)C1 (stereo not drawn) [1-146]
Herbicidal effect grade, A: Echinochloa oryzacola Vasing. [1]: 5 (Herbicidal ratio of 90% or more (almost completely withered))
Effect grade on crop, a: transplanted rice plant (transplanted rice plant): 5 (Herbicidal ratio of 90% or more (almost completely withered))
herbicidal effect on H (Echinochloa crus-galli var. crus-galli), grade 0-5 [2]: 5 (Herbicidal ratio of 90% or more (almost completely withered))
G: Setaria viridis, herbicidal effect grade (Setaria viridis [3]; 320 g/ha): 5 (Herbicidal ratio of 90% or more (almost completely withered))
K: Lolium multiflorum Lam., herbicidal effect grade (Lolium multiflorum Lam.; 320 g/ha): 5 (Herbicidal ratio of 90% or more (almost completely withered))
N: Amaranthus retroflexus, herbicidal effect grade (Amaranthus retroflexus [4]; 320 g/ha): 5 (Herbicidal ratio of 90% or more (almost completely withered))
P: Stellaria media, herbicidal effect grade (Stellaria media [5]; 320 g/ha): 1 (Herbicidal ratio of 5% or higher and lower than 20%)
e: wheat, effect grade on crop (wheat [6]; 320 g/ha): 5 (Herbicidal ratio of 90% or more (almost completely withered))
G: Setaria viridis, herbicidal effect (criteria 0-5) (Setaria viridis [7]): 5 (Herbicidal ratio of 90% or more (almost completely withered))
I: Avena fatua, herbicidal effect (criteria 0-5) (Avena fatua): 5 (Herbicidal ratio of 90% or more (almost completely withered))
M: Abutilon theophrasti, herbicidal effect (criteria 0-5) (Abutilon theophrasti): 5 (Herbicidal ratio of 90% or more (almost completely withered))
N: Amaranthus retroflexus, herbicidal effect (criteria 0-5) (Amaranthus retroflexus [8]): 0 (Herbicidal ratio of 5% or lower (almost no effect))
P: Stellaria media, herbicidal effect (criteria 0-5) (Stellaria media [9]): 3 (Herbicidal ratio of 40% or higher and lower than 70%)
e: wheat, effect on crop (criteria 0-5) (wheat [10]): 5 (Herbicidal ratio of 90% or more (almost completely withered))
f: beet, effect on crop (criteria 0-5) (beet): 4 (Herbicidal ratio of 70% or higher and lower than 90%)

Cc1cc(C)c(C2=C(O)CC(CC(=O)C3CCCCC3)C2=O)c(C)c1 (stereo not drawn) [2-030]
Herbicidal effect grade, A: Echinochloa oryzacola Vasing. [1]: 4 (Herbicidal ratio of 70% or higher and lower than 90%)
Effect grade on crop, a: transplanted rice plant (transplanted rice plant): 3 (Herbicidal ratio of 40% or higher and lower than 70%)
herbicidal effect on H (Echinochloa crus-galli var. crus-galli), grade 0-5 [2]: 4 (Herbicidal ratio of 70% or higher and lower than 90%)
G: Setaria viridis, herbicidal effect grade (Setaria viridis [3]; [11]): 5 (Herbicidal ratio of 90% or more (almost completely withered))
K: Lolium multiflorum Lam., herbicidal effect grade (Lolium multiflorum Lam.; [11]): 4 (Herbicidal ratio of 70% or higher and lower than 90%)
N: Amaranthus retroflexus, herbicidal effect grade (Amaranthus retroflexus [4]; [11]): 0 (Herbicidal ratio of 5% or lower (almost no effect))
P: Stellaria media, herbicidal effect grade (Stellaria media [5]; [11]): 0 (Herbicidal ratio of 5% or lower (almost no effect))
e: wheat, effect on crop grade (wheat [6]): 0 (Herbicidal ratio of 5% or lower (almost no effect))
G: Setaria viridis, herbicidal effect grade (Setaria viridis [7]): 5 (Herbicidal ratio of 90% or more (almost completely withered))
I: Avena fatua, herbicidal effect grade (Avena fatua): 1 (Herbicidal ratio of 5% or higher and lower than 20%)
M: Abutilon theophrasti, herbicidal effect grade (Abutilon theophrasti): 0 (Herbicidal ratio of 5% or lower (almost no effect))
N: Amaranthus retroflexus, herbicidal effect grade (Amaranthus retroflexus [8]): 0 (Herbicidal ratio of 5% or lower (almost no effect))
P: Stellaria media, herbicidal effect grade (Stellaria media [9]): 0 (Herbicidal ratio of 5% or lower (almost no effect))
e: wheat, effect on crop grade (wheat [10]): 0 (Herbicidal ratio of 5% or lower (almost no effect))
f: beet, effect on crop grade (beet): 0 (Herbicidal ratio of 5% or lower (almost no effect))
